Experimental data taken from patent US20210239681A1, “COMPOSITIONS AND METHODS FOR […] OF […]-BASED IMMUNOTHERAPEUTICS” (ADVAXIS, INC., priority 2018, published 2021).

Legend:
Type in all cases: cell-based, human
9mer specific T cells = assay: Co-culture of THP-1 with 9mer specific T cells, cytokine production; set-up: IFNγ / IL-10 / IL-12p70 / IL-13 / IL-1β / IL-2 / IL-5 / IL-6 / TNF-α: unit not given here; conditions: for IFNγ production, with 9mer specific T cells: Listeria MOI of 10, optical density
Excerpt: (§1) Analysis Kits and Reagents: Analysis of cytokine concentrations in culture medium used the U-plex assay kits from Meso Scale Discovery. Expression of T cell receptors specific for E7 peptide bound to HLA-A*02:01 was detected using HLA-A*02:01/peptide tetramers from MBL International (Woburn, Mass.).
(§2) There were several possible explanations for the muted response with THP-1 cells infected with ADSX11: including failure of THP-1 cells to process the 10mer epitope from full length E7 protein, failure of the THP-1 cells to present the processed 10mer E7 peptide on HLA-A*02:01, insufficient incubation of the infected cells to allow synthesis of the E7 protein and accumulation of the MHC/peptide complex on the cell surface, and/or an inhibitory effect of gentamicin. A culture of T cells specific for the 9mer epitope was used as well as a new culture of 10mer specific T cells. The THP-1 cells were infected as before with XFL7 or ADXS11-001 at an MOI of 10. After treatment with gentamicin for one hour, the cells were cultured overnight in the absence of gentamicin. The next day the infected cells were collected and co-cultured with 9mer or 10mer specific T cells. These co-cultures were set up in standard X-VIVO 15 and X-VIVO 15 without gentamicin or phenol red. The co-cultures were incubated overnight before collecting medium for cytokine analysis. The medium was tested for IFNγ concentrations and optical density. […] In addition, the 10mer specific T cells recognized ADXS11-001 infected THP-1 when there was no gentamicin in the medium.
(§3) To further explore the importance of the overnight incubation of infected THP-1, THP-1 cells infected overnight were compared to THP-1 cells infected for 2 hours. T cells specific for 9mer and 10mer peptides were co-cultured with each of the THP-1 cells and with uninfected or peptide exposed THP-1. As before, medium was collected after an overnight co-culture and cytokines were measured.
(§4) Optimization of infection time required for E7 presentation. THP-1 infected and cultured overnight compared to THP-1 infected for 2 hours and used after gentamicin treatment. Both 9-mer specific T cells and 10-mer specific T cells used. Assays were performed using X-VIVO 15 medium without gentamicin. The following cytokines were measured: IFNγ, IL-1β, IL-2, IL-10, IL-12p70, IL-13, IL-5, IL-6, TNFα.

T cells = assay: Intracellular cytokine staining of T cells; conditions: Brefeldin A, FIG. 9
Method: (§5) To identify cytokines that can be used to measure potency of a Listeria-based therapeutic the following tests were performed. Intracellular cytokine staining was used to detect T cells specificity. THP-1 were incubated with peptide overnight, mixed with T cells from above and centrifuged. The collected cells were then co-cultured at 37° C. for 1 hour. Brefeldin A was then added and the cells were co-cultured for another 4 hours. Brefeldin A inhibits secretion and permits analysis by flow cytometry. Cell were then stained to identify dead cells and CD8+ cells. The cell were then fixed and stained for IFNγ (using fix and permeabilization buffer from eBioscience/Invitrogen).

THP-1 cells [1] = assay: Cytokine production by THP-1 in the absence of T cells; conditions: Without gentamicin; Listeria MOI of 10; optical density
[2] = system: E7 (11-20) specific T cells; assay: Initial THP-1 / T cell co-culture cytokine production (T cell culture with 6% E7 (11-20) specific T cells); set-up: IFNγ / TNF-α / IL-10 / IL-12p70 / IL-13 / IL-1β / IL-2 / IL-4 / IL-6 / IL-8: unit not given here; conditions: T cells and THP-1 incubated with peptide one hour; overnight co-culture
Method: as §1
Infection of THP-1: The THP-1 cell line was infected with either ADXS11-001 or XFL7 by incubating 10^6 cells with dilutions of bacteria in a 1 mL volume of RPMI 1640 10% FBS. Incubation with bacteria was at 37° C., 5% CO2 for the indicated times, then extracellular bacteria were eliminated by washing and incubation in the presence of 50 μg/mL gentamicin for 1 hour at 37° C. After incubation with gentamicin the cells were washed again and resuspended to the desired cell concentration.
(§6) T cell cytokine expression analysis. An initial experiment using THP-1 as antigen presenting cells was performed using a T cell culture containing 6% E7 (11-20) specific T cells based upon staining with HLA-A*02:01/peptide tetramer. THP-1 cells were infected as described using two different concentrations of bacteria and then co-cultured with the T cells. Controls included uninfected THP-1 cells and THP-1 cells incubated with (exposed to) either the 9mer or 10mer peptide for one hour. After an overnight co-culture, medium was collected for analysis of cytokines.

THP-1 cells [3] = assay: Cytokine production by THP-1 in the absence of T cells; set-up: IL-6: unit not given here
Method: as §1
Infection of THP-1: The THP-1 cell line was infected with either ADXS11-001 or XFL7 by incubating 10^6 cells with dilutions of bacteria in a 1 mL volume of RPMI 1640 10% FBS. […] After incubation with gentamicin the cells were washed again and resuspended to the desired cell concentration.
as §6, §3
Titration studies with different multiplicity of infection (MOI). THP cells were infected for 2 hours with 3 different dilutions (MOI) of Listeria. Infected or uninfected THP cells were then cultured overnight for 24 hours before co-culturing the T cells. Cells were co-cultured overnight before cytokine analysis.

THP-1 cells [4] = assay: Intracellular cytokine staining of THP-1 cells; conditions: FIGS. 3A-3C, FIG. 10
Method: as §5
Intracellular cytokine staining of THP-1 cells.

PBMC = assay: Cytokine release by donor PBMC cultured with peptide; set-up: unit not given beside the values; conditions: release on antigen
Method: Peripheral blood mononuclear cells (PBMCs) samples were collected from three human HLA-A*02:01 donors: 358, 213, and 224. The peripheral blood mononuclear cells (PBMCs) were cultured with one of two E7 peptides: […] (9mer or 1T; SEQ ID NO: 100) or […] (10mer or 2T; SEQ ID NO: 101). After 10 days culture, the PBMCs were tested for E7 peptide binding staining and cytokine release.

10mer specific T cells = assay: Co-culture of THP-1 with 10mer specific T cells, cytokine production; set-up: IFNγ / IL-10 / IL-13 / IL-1β / IL-2 / IL-5 / IL-6 / TNF-α: unit not given here; conditions: for IFNγ production, with 10mer specific T cells: Listeria MOI of 10, optical density
Excerpt: as §1, §2, §3, §4

[5] = 9mer T cells + peptide exposed THP-1, overnight co-culture
[6] = THP-1 incubated with peptide, absence of T cells
[7] = 10mer T cells + peptide exposed THP-1, overnight co-culture

## YMLDLQPET [9mer]
9mer specific T cells; 50 μg/mL gentamicin
  IFNγ production, with 9mer specific T cells: 0.177
9mer specific T cells; [5]
  IFNγ: 4713
  IL-1β: 0
  IL-2: 18
  IL-5: 0
  IL-6: 13
  IL-10: 1
  IL-12p70: 0
  IL-13: 3
  TNF-α: 74
9mer specific T cells; Without gentamicin
  IFNγ production, with 9mer specific T cells: 0.117
T cells
  IFNγ in T cells after stimulation with peptide: detected
THP-1 cells [1]
  IFNγ production, THP-1 alone: 0.059
[2]
  IFNγ: 1508.2
  IL-1β: 1.0
  IL-2: 3.7
  IL-4: 0.2
  IL-6: 4.2
  IL-8: 405.7
  IL-10: 2.1
  IL-12p70: <LLOD
  IL-13: 120.3
  TNF-α: 57.1
THP-1 cells [3]; 50 μg/mL gentamicin, Listeria MOI of 10, optical density
  IFNγ production, THP-1 alone: 0.064
THP-1 cells [3]; THP-1 alone, peptide exposed
  IFNγ: <LLOD
  IL-1β: <LLOD
  IL-2: <LLOD
  IL-5: <LLOD
  IL-6: <LLOD
  IL-10: <LLOD
  IL-12p70: <LLOD
  IL-13: <LLOD
  TNF-α: 0
THP-1 cells [3]; [6]
  IFNγ: <LLOD
  IL-1β: 0.0
  IL-2: <LLOD
  IL-4: <LLOD
  IL-6: <LLOD
  IL-8: 7.3
  IL-10: <LLOD
  IL-12p70: <LLOD
  IL-13: <LLOD
  TNF-α: <LLOD
THP-1 cells [4]
  Basal IFNγ in THP-1 cells after stimulation with peptide: not detectable
PBMC; donor 213 PBMC cultured with 1T peptide
  IFNγ Mean: 242.6
PBMC; donor 358 PBMC stimulated with 1T
  IFNγ Mean: 1642.7
PBMC; donor 358 PBMC stimulated with 2T
  IFNγ Mean: 352.4
10mer specific T cells; 50 μg/mL gentamicin
  IFNγ production, with 10mer specific T cells: 0.063
10mer specific T cells; [7]
  IFNγ: 103
  IL-1β: <LLOD
  IL-2: <LLOD
  IL-5: <LLOD
  IL-6: <LLOD
  IL-10: 0
  IL-12p70: <LLOD
  IL-13: <LLOD
  TNF-α: <LLOD
10mer specific T cells; Without gentamicin
  IFNγ production, with 10mer specific T cells: 0.062

## gentamicin
10mer specific T cells; Listeria-based infection of THP-1, 50 μg/mL
  effect of gentamicin in the culture medium on antigen presentation: inhibits expression of E7 or antigen presentation
